EC50 and Decrease data for 30 compounds are collected here from ChEMBL document CHEMBL1143568, “A new class of selective myocardial calcium channel modulators. 2. Role of the acetal chain in oxadiazol-3-one derivatives” (J Med Chem, 2005).

The species named for experiment [1] is Cavia porcellus. Description: Negative inotropic potency as decrease in the developed tension in isolated guinea pig left artium.
For experiment [2], the species on record is Cavia porcellus. Description: Negative inotropic activity as decrease in the developed tension in isolated guinea pig left artium at 10E-5 M (n=4-6).
The species named for experiment [3] is Cavia porcellus. The experiment can be described thus: Vasorelaxant activity determined by percentage inhibition of calcium-induced contraction on K+ depolarized guinea pig aortic strip at 5x10E-5 M.
The species entered for experiment [4] is Cavia porcellus. Description: Negative chronotropic activity was determined as percent decrease in the artial rate in spontaneously beating guinea pig artium at 5x10E-5 M (n=6-8).
Experiment [5] is filed under the species Cavia porcellus. Description: Negative inotropic activity as decrease in the developed tension in isolated guinea pig left artium at 5x10E-5 M (n=4-6).
For experiment [6], the species on record is Cavia porcellus. Description: Negative chronotropic activity was determined as percent decrease in the artial rate in spontaneously beating guinea pig artium at 10E-5 M (n=6-8).

Structures are written as SMILES.

As a reminder, the EC50 is the concentration at which the effect is half-maximal. Read a low EC50 as higher potency in that assay. Turning to `CC1=CS[C@@](O)(c2ccc(Cl)cc2)c2noc(=O)n21`, the response in the experiment filed under Cavia porcellus [1] was half-maximal at 800 nM (EC50). In addition, the Decrease amounted to 80% in the experiment filed under Cavia porcellus [2], 26% in the experiment listed under Cavia porcellus [3] and 18% in the experiment filed under Cavia porcellus [4].
The compound `COC1(c2ccc(Cl)cc2)SC=C(C)n2c1noc2=O` (stereo unspecified) showed an EC50 in the experiment filed under Cavia porcellus [1] of 1540 nM. Also, the Decrease in the experiment listed under Cavia porcellus [5] is given as 62%; in the experiment filed under Cavia porcellus [3], 14%; in the experiment listed under Cavia porcellus [4], 22%.
Turning to `CC/C=C/COC1(c2ccc(Cl)cc2)SC=C(C)n2c1noc2=O` (stereo unspecified), the Decrease is on record as 46% in the experiment filed under Cavia porcellus [5], 10% in the experiment listed under Cavia porcellus [3] and 8% in the experiment listed under Cavia porcellus [4].
In the case of `CC1=CSC(OCC(C)C)(c2ccc(Cl)cc2)c2noc(=O)n21` (stereo unspecified), the concentration for a half-maximal effect (EC50) in the experiment listed under Cavia porcellus [1] was found to be 560 nM. The Decrease in the experiment listed under Cavia porcellus [5] turned out to be 83%; in the experiment filed under Cavia porcellus [3], 37%; in the experiment filed under Cavia porcellus [4], 15%.
In turn, `CC1=CSC(OCc2ccccc2)(c2ccc(Br)cc2)c2noc(=O)n21` (stereo unspecified) had an EC50 in the experiment listed under Cavia porcellus [1] of 590 nM. Further, the Decrease came out at 63% in the experiment listed under Cavia porcellus [5], 2% in the experiment filed under Cavia porcellus [3] and 4% in the experiment filed under Cavia porcellus [4].
On to `CC1=CS[C@@](OCC2CCCCC2)(c2ccc(Cl)cc2)c2noc(=O)n21`, for which the 50% effective concentration (EC50) in the experiment filed under Cavia porcellus [1] worked out at 240 nM. Moreover, the Decrease in the experiment listed under Cavia porcellus [5] was 55%; in the experiment filed under Cavia porcellus [3], 5%; in the experiment filed under Cavia porcellus [4], 5%.
Regarding `CC1=CS[C@@](OCC2CCCCC2)(c2ccc(Br)cc2)c2noc(=O)n21`, the EC50 in the experiment filed under Cavia porcellus [1] turned out to be 190 nM. Also, the Decrease in the experiment filed under Cavia porcellus [5] came to 78%; in the experiment listed under Cavia porcellus [3] it was 3%; in the experiment filed under Cavia porcellus [4] it was 8%.
Turning to `CCCCOC1(c2ccc(Cl)cc2)SC=C(C)n2c1noc2=O` (stereo unspecified), the EC50 in the experiment filed under Cavia porcellus [1] turned out to be 1850 nM. Further, the Decrease in the experiment filed under Cavia porcellus [5] is 62%; in the experiment filed under Cavia porcellus [3] it was 9%; in the experiment listed under Cavia porcellus [4] it was 9%.
`CCCCCCCCCCCCCCCCCCO[C@@]1(c2ccc(Br)cc2)SC=C(C)n2c1noc2=O` had an EC50 in the experiment filed under Cavia porcellus [1] of 970 nM. The Decrease came to 66% in the experiment filed under Cavia porcellus [5], 6% in the experiment filed under Cavia porcellus [3] and 5% in the experiment listed under Cavia porcellus [4].
As to `CCCOC1(c2ccc(Cl)cc2)SC=C(C)n2c1noc2=O` (stereo unspecified), it took 890 nM to reach a half-maximal effect in the experiment filed under Cavia porcellus [1] (EC50). In addition, the Decrease is recorded as 73% in the experiment listed under Cavia porcellus [5], 20% in the experiment listed under Cavia porcellus [3] and 7% in the experiment filed under Cavia porcellus [4].
With `CCCCCCCC/C=C\CCCCCCCCO[C@@]1(c2ccc(Br)cc2)SC=C(C)n2c1noc2=O`, in the experiment filed under Cavia porcellus [1], a half-maximal response (EC50) required 1260 nM. Also, the values for the Decrease in the experiment filed under Cavia porcellus [5], in the experiment listed under Cavia porcellus [3] and in the experiment listed under Cavia porcellus [4] were 84%, 2% and 9%, respectively.
With `CCCCCCCCCCCCCCCCCCOC1(c2ccc(Cl)cc2)SC=C(C)n2c1noc2=O` (stereo unspecified), the values for the Decrease in the experiment filed under Cavia porcellus [5], in the experiment filed under Cavia porcellus [3] and in the experiment filed under Cavia porcellus [6] were 39%, 2% and 15%, respectively.
`CCCCCCCCCOC1(c2ccc(Cl)cc2)SC=C(C)n2c1noc2=O` (stereo unspecified) had an EC50 in the experiment listed under Cavia porcellus [1] of 790 nM. In addition, the values for the Decrease in the experiment filed under Cavia porcellus [5], in the experiment listed under Cavia porcellus [3] and in the experiment listed under Cavia porcellus [4] were 73%, 4% and 11%, respectively.
As to `CCCCCCCC/C=C\CCCCCCCCO[C@@]1(c2ccc(Cl)cc2)SC=C(C)n2c1noc2=O`, in the experiment filed under Cavia porcellus [1], the concentration for a half-maximal effect (EC50) is 870 nM. In addition, the Decrease in the experiment listed under Cavia porcellus [5] turned out to be 70%; in the experiment listed under Cavia porcellus [3], 7%; in the experiment listed under Cavia porcellus [4] it was 14%.
Regarding `C=CCOC1(c2ccc(Cl)cc2)SC=C(C)n2c1noc2=O` (stereo unspecified), the response in the experiment listed under Cavia porcellus [1] was half-maximal at 370 nM (EC50). Besides, the Decrease in the experiment filed under Cavia porcellus [5] amounted to 84%; in the experiment filed under Cavia porcellus [3], 21%; in the experiment filed under Cavia porcellus [4], 13%.
As to `CC1=CSC(OCc2ccccc2)(c2ccc(Cl)cc2)c2noc(=O)n21` (stereo unspecified), in the experiment listed under Cavia porcellus [1], the EC50 was found to be 740 nM. For the same compound, the Decrease stood at 63% in the experiment listed under Cavia porcellus [5], 4% in the experiment listed under Cavia porcellus [3] and 5% in the experiment filed under Cavia porcellus [4].
`CC1=CSC(OCC(C)C)(c2ccc(Br)cc2)c2noc(=O)n21` (stereo unspecified) registered an EC50 in the experiment filed under Cavia porcellus [1] of 310 nM. Moreover, the Decrease came to 79% in the experiment filed under Cavia porcellus [2], 6% in the experiment listed under Cavia porcellus [3] and 11% in the experiment listed under Cavia porcellus [4].
In the experiment listed under Cavia porcellus [1], `CCCCCCCCCCCCCCCOC1(c2ccc(Cl)cc2)SC=C(C)n2c1noc2=O` (stereo unspecified) had an EC50 of 1130 nM. The Decrease in the experiment filed under Cavia porcellus [5] worked out at 69%; in the experiment listed under Cavia porcellus [3] it was 3%; in the experiment filed under Cavia porcellus [4] it was 9%.
For `CCCCCCOC1(c2ccc(Cl)cc2)SC=C(C)n2c1noc2=O` (stereo unspecified) the same measures were 640 nM, 68%, 3% and 10%.
As to `CCCCCOC1(c2ccc(Br)cc2)SC=C(C)n2c1noc2=O` (stereo unspecified), the Decrease in the experiment listed under Cavia porcellus [5] came out at 34%; in the experiment filed under Cavia porcellus [3], 3%; in the experiment filed under Cavia porcellus [4], 2%.
`CC/C=C/COC1(c2ccc(Br)cc2)SC=C(C)n2c1noc2=O` (stereo unspecified): the values for the Decrease in the experiment filed under Cavia porcellus [5], in the experiment filed under Cavia porcellus [3] and in the experiment filed under Cavia porcellus [4] were 43%, 11% and 10%, respectively.
In the experiment listed under Cavia porcellus [1], `CC1=CS[C@@](O)(c2ccc(Br)cc2)c2noc(=O)n21` had an EC50 of 320 nM. The Decrease in the experiment listed under Cavia porcellus [5] was 97%; in the experiment filed under Cavia porcellus [3] it was 12%; in the experiment listed under Cavia porcellus [4], 18%.
Consider `CC/C=C\COC1(c2ccc(Br)cc2)SC=C(C)n2c1noc2=O` (stereo unspecified), for which, in the experiment filed under Cavia porcellus [1], a half-maximal response (EC50) required 630 nM. Further, the figures for the Decrease in the experiment filed under Cavia porcellus [5], in the experiment listed under Cavia porcellus [3] and in the experiment listed under Cavia porcellus [4] were 81%, 11% and 20%, respectively.
For `CCCCCCOC1(c2ccc(Br)cc2)SC=C(C)n2c1noc2=O` (stereo unspecified), in that order: 830 nM, 81%, 2% and 9%.
In the experiment listed under Cavia porcellus [1], `CCO[C@@]1(c2ccc(Cl)cc2)SC=C(C)n2c1noc2=O` came in with an EC50 of 270 nM. Besides, the Decrease was 53% in the experiment filed under Cavia porcellus [5], 28% in the experiment listed under Cavia porcellus [3] and 16% in the experiment filed under Cavia porcellus [4].
Compound `C=CCOC1(c2ccc(Br)cc2)SC=C(C)n2c1noc2=O` (stereo unspecified) registered an EC50 in the experiment listed under Cavia porcellus [1] of 550 nM. Also, the figures for the Decrease in the experiment listed under Cavia porcellus [5], in the experiment listed under Cavia porcellus [3] and in the experiment filed under Cavia porcellus [4] were 91%, 13% and 13%, respectively.
Turning to `CCCCCCCCCCCCO[C@@]1(c2ccc(Br)cc2)SC=C(C)n2c1noc2=O`, the EC50 in the experiment listed under Cavia porcellus [1] worked out at 130 nM. The Decrease in the experiment filed under Cavia porcellus [2] is given as 59%; in the experiment filed under Cavia porcellus [3], 3%; in the experiment listed under Cavia porcellus [4], 16%.
`CCCCCCCCCO[C@@]1(c2ccc(Br)cc2)SC=C(C)n2c1noc2=O` returned an EC50 in the experiment listed under Cavia porcellus [1] of 350 nM. For the same compound, the figures for the Decrease in the experiment filed under Cavia porcellus [5], in the experiment listed under Cavia porcellus [3] and in the experiment filed under Cavia porcellus [4] were 71%, 3% and 7%, respectively.
Turning to `CCCCOC1(c2ccc(Br)cc2)SC=C(C)n2c1noc2=O` (stereo unspecified), in the experiment filed under Cavia porcellus [1], the EC50 was determined as 1020 nM. Besides, the Decrease is 82% in the experiment filed under Cavia porcellus [5], 2% in the experiment filed under Cavia porcellus [3] and 18% in the experiment filed under Cavia porcellus [4].
For `CC/C=C\COC1(c2ccc(Cl)cc2)SC=C(C)n2c1noc2=O` (stereo unspecified) the same measures were 1310 nM, 67%, 10% and 5%.
